Data as given in US20210260010A1, “COMPOSITIONS AND METHODS FOR THE REDUCTION OR TREATMENT OF INFLAMMATION” (AXCELLA HEALTH INC., priority 2018, published 2021).

Assays:
TNFα = test: LPS-induced TNFα secretion in primary human monocyte-derived macrophages (ELISA); format: cell-based; set-up: TNFa Measurements Mean: unit not given here; conditions: for TNFa Measurements Mean: Donor 1, LPS 0.15 ng/mL; for TNFa Measurements Mean / Donor 2 TNFa Measurements Mean / Donor 3 TNFa Measurements Mean: baseline subtracted
Experimental: Unpurified buffy coats (Research Blood Components) were carefully poured into 50 mL centrifuge tubes and diluted with room temperature Dulbecco's Phosphate Buffered Saline (dPBS) with Calcium and Magnesium (Gibco). Diluted buffy coats were further divided into four total 50 mL centrifuge tubes at 20 mL per tube. Lymphocyte Separation Medium (Corning) was carefully pipetted to the bottom of each centrifuge tube. Mixtures were centrifuged at 850× g for 32 minutes at 20° C. with 0 deceleration and acceleration.
The PBMC layer was separated from other components after centrifugation and added to new 50 mL centrifuge tube containing 25 mL dPBS. Total volume was brought up to 50 mL with dPBS and centrifuged at 600×g for 10 minutes at 20° C. with acceleration of 9, deceleration of 5. Supernatant was carefully removed from cell pellets. The cell pellets were resuspended using 10 mL dPBS. Total volume was then brought up to 50 mL using dPBS and centrifuged at 450×g for 5 min at 20° C. with acceleration of 9, deceleration of 9. The supernatant removal and cell pellet resuspension was repeated again.
The supernatant was then carefully removed from cell pellets. Cell pellets were resuspended in 10 mL dPBS without calcium or magnesium and filtered through a 70 uM cell strainer. The total PBMC number was determined using a Cellometer K2 automated cell counter. A total of 5E6 cells were saved for flow cytometric analysis. Remaining cells were centrifuged at 490×g for 5 minutes at 20° C. with acceleration of 9, deceleration of 9.
CD14+ cells were selected using EasySep™ Human CD14 Positive Selection Kit II ([…] Technologies). Cells were resuspended in cold EasySep™ Buffer ([…] Technologies) at 1×10^8 cells/mL. A total of 100 uL/mL EasySep™ Human CD14 Positive Selection Cocktail II was added to the cell suspension, mixed, and incubated at room temperature for 10 minutes. A total of 100 uL/mL RapidSpheres were added to the mixture and incubated at room temperature for 3 minutes after mixing, then RoboSep buffer was added to bring up the total volume to 10 mL. The mixture in a 15 mL tube was placed in magnet and incubated at room temperature for 3 minutes. Supernatant was discarded and 10 mL fresh EasySep™ buffer was added to 15 mL tube. The addition of RoboSep buffer, mixing, and discarding of supernatant was repeated two more times.
Negative and positive fractions were centrifuged at 490×g for 5 minutes at 20° C. with acceleration of 9, deceleration of 9, and resuspended in DMEM (Gibco) and 10% Heat Inactivated Fetal Bovine Serum (Atlanta Bio) and Penicillin/Streptomycin. Cells were counted and centrifuged again at 490× g for 5 minutes at 20° C. with acceleration of 9, deceleration of 9. After centrifugation, cell were resuspended in DMEM (Gibco) and 10% Heat Inactivated Fetal Bovine Serum (Atlanta Bio) and Penicillin/Streptomycin containing 500 U/mL […] and plated at 1-2×10^6 cells/mL on 10 cm tissue culture plates. Cells were kept in 37° C., 5% CO2 in between feedings/harvest.
Cells were fed every 3-4 days by removing media and unattached cells, centrifuging at 490× g for 5 minutes at 20° C. with acceleration of 9, deceleration of 9, and resuspending in fresh DMEM (Gibco) and 10% Heat Inactivated Fetal Bovine Serum (Atlanta Bio) and Penicillin/Streptomycin containing GM-CSF. Resuspended cells were seeded back onto 10 cm tissue culture plates and incubated at 37° C., 5% CO2. Differentiated macrophages were used for subsequent experiments.
Primary human PMBC derived macrophages were seeded on day 0 at 3.0E4 cells per well in 96-well microplates (ThermoFisher) in Dulbecco's Modified Eagle Medium (DMEM) (Gibco) supplemented with penicillin-streptomycin (Hyclone) and 10% heat inactivated fetal bovine serum (HI-FBS) (Atlanta Bio) and incubated overnight at 37° C., 5% CO2. On day 1, cells were washed once with 150 uL per well DPBS (Gibco) and treated with 75 uL of: • a. […]

CCL18 = test: IL-4 induced CCL18 secretion in primary human monocyte-derived macrophages (ELISA); format: cell-based; conditions: for Donor 1 CCL18 Measurements Mean / Donor 2 CCL18 Measurements Mean: relative to vehicle control; for CCL18 Measurements: Mean (fold change relative to vehicle control): IL-4 induced; for IL-4 induced CCL18 secretion (fold change relative to vehicle control): macrophages
Experimental: Lymphocytes were purified from unpurified buffy coats (Research Blood Components) using Lymphocyte Separation Medium (Corning). After centrifugation, the PBMC layer was extracted and rinsed several times using Dulbecco's phosphate-buffered saline (DPBS; Gibco). After straining PBMCs through a 70 uM cell strainer, cells were resuspended and counted using a Cellometer K2 automated cell counter.
CD14+ cells were selected using EasySep™ Human CD14 Positive Selection Kit II ([…] Technologies) according to manufacturer-supplied protocols. Following isolation CD14+ cells were seeded into 10 cm tissue culture plates and differentiated into macrophages using M-CSF (Peprotech).
On day 0, primary human PBMC derived macrophages were seeded in Dulbecco's Modified Eagle Medium (DMEM) (Gibco) supplemented with penicillin-streptomycin (Hyclone) and 10% heat inactivated fetal bovine serum (HI-FBS) (Atlanta Bio) into 96-well microplates (ThermoFisher) and incubated overnight at 37° C., 5% CO2. On day 1, cells were washed once with DPBS and then treated with: • a. Amino acid free DMEM (US Biologicals) containing a defined custom amino acid concentration based on the mean physiological concentrations in blood based on values published in the Human Metabolome Database (HMDB), with 6 mM glucose, 1 mM sodium pyruvate, 10 mM HEPES, penicillin-streptomycin; or • b. The same medium described above with one amino acid or amino acid combination at various concentrations
On day 2, cells were treated with the same mediums described above supplemented with recombinant human interleukin-4 (IL-4; Peprotech). Control wells were treated with tofacitinib (Tocris) and IL-4, PBS with IL-4, or phosphate buffered saline (PBS) alone.
On day 3, the supernatant was collected and immediately frozen in −80° C. freezer. Cells were washed once with DPBS and viability was assessed using the WST-8 Cell Proliferation Cytotoxicity Assay (Dojindo) according to manufacturer-supplied protocol. Following the assay, cells were washed twice with PBS and fixed with 4% paraformaldehyde. Protein levels in supernatant samples were analyzed by ELISA for CCL18 using commercially available kits (R&D Systems) according to manufacturer-supplied protocols.

SMILES: N=C(N)NCCC[C@H](N)C(=O)O [Arginine, L-Arginine]
- TNFa Measurements Mean (TNFα; Conc. 109 μM (baseline)): 0
- TNFa Measurements Mean (TNFα; Conc. 1088 μM): −24.33
- TNFa Measurements Mean (TNFα; Conc. 2720 μM): 5.12
- TNFa Measurements Mean (TNFα; Conc. 5440 μM): 62.06
- Donor 2 TNFa Measurements Mean (TNFα; Donor 2, Conc. 109 μM (baseline)): 1.42E−14
- Donor 2 TNFa Measurements Mean (TNFα; Donor 2, Conc. 1088 μM): −12.7222
- Donor 2 TNFa Measurements Mean (TNFα; Donor 2, Conc. 2720 μM): −3.763
- Donor 2 TNFa Measurements Mean (TNFα; Donor 2, Conc. 5440 μM): −0.5738
- Donor 3 TNFa Measurements Mean (TNFα; Conc. 109 μM (baseline)): 3.55E−15
- Donor 3 TNFa Measurements Mean (TNFα; Conc. 1088 μM): 3.131
- Donor 3 TNFa Measurements Mean (TNFα; Conc. 2720 μM): −0.9669
- Donor 3 TNFa Measurements Mean (TNFα; Conc. 5440 μM): −1.767
- Donor 1 CCL18 Measurements Mean (CCL18; Conc. 109 μM): 1.131 fold change
- Donor 1 CCL18 Measurements Mean (CCL18; Conc. 1088 μM): 1.068 fold change
- Donor 1 CCL18 Measurements Mean (CCL18; Conc. 2720 μM): 1.121 fold change
- Donor 1 CCL18 Measurements Mean (CCL18; Conc. 5440 μM): 1.277 fold change
- Donor 2 CCL18 Measurements Mean (CCL18; Donor 2, Conc. 109 μM): 0.9634 fold change
- Donor 2 CCL18 Measurements Mean (CCL18; Donor 2, Conc. 1088 μM): 0.9846 fold change
- Donor 2 CCL18 Measurements Mean (CCL18; Donor 2, Conc. 2720 μM): 1.031 fold change
- Donor 2 CCL18 Measurements Mean (CCL18; Donor 2, Conc. 5440 μM): 1.089 fold change
- CCL18 Measurements: Mean (fold change relative to vehicle control) (CCL18; Donor 3, Conc. 109 μM): 1.138 fold change
- CCL18 Measurements: Mean (fold change relative to vehicle control) (CCL18; Donor 3, Conc. 1088 μM): 0.9131 fold change
- CCL18 Measurements: Mean (fold change relative to vehicle control) (CCL18; Donor 3, Conc. 2720 μM): 1.208 fold change
- CCL18 Measurements: Mean (fold change relative to vehicle control) (CCL18; Donor 3, Conc. 5440 μM): 1.206 fold change

SMILES: CC(C)C[C@H](N)C(=O)O [Leucine, L-Leucine]
- TNFa Measurements Mean (TNFα; Conc. 153 μM (baseline)): 0
- TNFa Measurements Mean (TNFα; Conc. 3054 μM): 42.04
- TNFa Measurements Mean (TNFα; Conc. 7635 μM): −23.04
- TNFa Measurements Mean (TNFα; Conc. 15270 μM): −46.21
- Donor 2 TNFa Measurements Mean (TNFα; Donor 2, Conc. 153 μM (baseline)): 0
- Donor 2 TNFa Measurements Mean (TNFα; Donor 2, Conc. 3054 μM): 31.74
- Donor 2 TNFa Measurements Mean (TNFα; Donor 2, Conc. 7635 μM): 41.98
- Donor 2 TNFa Measurements Mean (TNFα; Donor 2, Conc. 15270 μM): 46.69
- LPS-induced TNFα secretion (TNFα; macrophages, Donor 2, 0.15 ng/mL LPS): increased
- Donor 1 CCL18 Measurements Mean (CCL18; Conc. 153 μM): 1.124 fold change
- Donor 1 CCL18 Measurements Mean (CCL18; Conc. 3054 μM): 1.302 fold change
- Donor 1 CCL18 Measurements Mean (CCL18; Conc. 7635 μM): 1.247 fold change
- Donor 1 CCL18 Measurements Mean (CCL18; Conc. 15270 μM): 1.227 fold change
- Donor 2 CCL18 Measurements Mean (CCL18; Donor 2, Conc. 153 μM): 1.488 fold change
- Donor 2 CCL18 Measurements Mean (CCL18; Donor 2, Conc. 3054 μM): 1.646 fold change
- Donor 2 CCL18 Measurements Mean (CCL18; Donor 2, Conc. 7635 μM): 1.825 fold change
- Donor 2 CCL18 Measurements Mean (CCL18; Donor 2, Conc. 15270 μM): 1.712 fold change
- CCL18 Measurements: Mean (fold change relative to vehicle control) (CCL18; Donor 3, Conc. 153 μM): 1.242 fold change
- CCL18 Measurements: Mean (fold change relative to vehicle control) (CCL18; Donor 3, Conc. 3054 μM): 1.502 fold change
- CCL18 Measurements: Mean (fold change relative to vehicle control) (CCL18; Donor 3, Conc. 7635 μM): 1.558 fold change
- CCL18 Measurements: Mean (fold change relative to vehicle control) (CCL18; Donor 3, Conc. 15270 μM): 1.193 fold change
- IL-4 induced CCL18 secretion (fold change relative to vehicle control) (CCL18; Donor 2): significantly increased
- IL-4 induced CCL18 secretion (fold change relative to vehicle control) (CCL18; Donor 3): significantly increased
